According to ChEMBL document CHEMBL1201862, “PubChem BioAssay data set” (2004):
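Growth conditions: 96-well plates. Treatment: test compound, 48 hours, 5 concentrations. Analysis: linear interpolation between bracketing concentrations; unreached endpoints set to highest concentration. The concentration for 50% growth inhibition is given as GI50.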 Active and inactive are the calls of the source. Rule as the data show it: active = GI50 up to about 1.1 µM and inactive = higher.

Experiments:
Test in all cases: DTP human tumour cell line panel, 48 h
PC-3 = system: PC-3
EKVX = system: EKVX
SF-539 = system: SF-539
ACHN = system: ACHN
HCT-116 = system: HCT-116
HOP-62 = system: HOP-62
M14 = system: M14
OVCAR-5 = system: OVCAR-5
DU-145 = system: DU-145
SNB-75 = system: SNB-75
MDA-MB-435 = system: MDA-MB-435
SNB-19 = system: SNB-19
OVCAR-3 = system: OVCAR-3
NCI-H522 = system: NCI-H522
OVCAR-8 = system: OVCAR-8
BT-549 = system: BT-549
RXF 393 = system: RXF 393
OVCAR-4 = system: OVCAR-4
SF-295 = system: SF-295
CAKI-1 = system: CAKI-1

Measured: GI50

CC(C)SC(C)(NC(=O)C1C(C)(C)CCC1(C)C)C(=O)O (stereo not given)
inactive: PC-3 > 100 µM | EKVX > 100 µM | SF-539 > 100 µM | ACHN > 100 µM | HCT-116 > 100 µM | HOP-62 > 100 µM | M14 > 100 µM | OVCAR-5 > 100 µM | DU-145 > 100 µM | SNB-75 > 100 µM | MDA-MB-435 > 100 µM | SNB-19 > 100 µM

CCC(=O)O[C@H]1CC[C@H]2[C@@H]3CCC4=C/C(=N/NC(=O)c5cccc6c(=O)c7ccccc7[nH]c56)CC[C@]4(C)[C@H]3CC[C@]12C
inactive: OVCAR-3 > 25 µM | PC-3 > 25 µM | EKVX > 25 µM | SF-539 > 25 µM | ACHN > 25 µM | NCI-H522 > 25 µM | OVCAR-8 > 25 µM | BT-549 > 25 µM | HOP-62 > 25 µM | M14 > 25 µM | OVCAR-5 > 25 µM | RXF 393 > 25 µM | SNB-75 > 25 µM | OVCAR-4 > 25 µM | MDA-MB-435 > 25 µM | SNB-19 > 25 µM | SF-295 > 25 µM

O=C(Nc1ccccc1)C(=O)C(C(=O)c1ccccc1)C(c1ccccc1)c1ccccc1 (stereo not given)
inactive: PC-3 > 10 µM | EKVX > 10 µM | OVCAR-8 > 10 µM | CAKI-1 > 10 µM | HOP-62 > 10 µM | M14 > 10 µM | RXF 393 > 10 µM | DU-145 > 10 µM | SNB-75 > 10 µM | OVCAR-4 > 10 µM | MDA-MB-435 > 10 µM | SF-295 > 10 µM

O=C(/C=C/c1ccccc1)c1cc(C(=O)/C=C/c2ccccc2)c(O)cc1O
inactive: PC-3 > 100 µM | EKVX 18.7 µM | SF-539 47.3 µM | ACHN 73.1 µM | OVCAR-8 > 100 µM | HCT-116 60.1 µM | BT-549 > 100 µM | CAKI-1 > 100 µM | HOP-62 > 100 µM | M14 > 100 µM | OVCAR-5 > 100 µM | OVCAR-4 > 10 µM | MDA-MB-435 > 100 µM | SNB-19 > 100 µM

CCCCC1Cc2ccccc2-c2nc3ccccc3n21 (stereo not given)
inactive: OVCAR-3 15.2 µM | PC-3 10.3 µM | EKVX 21 µM | SF-539 19.6 µM | ACHN 17.1 µM | NCI-H522 13 µM | OVCAR-8 18 µM | HCT-116 12.6 µM | CAKI-1 15.5 µM | HOP-62 19.1 µM | M14 18.1 µM | OVCAR-5 16 µM | RXF 393 15.5 µM | DU-145 18.4 µM | OVCAR-4 12.9 µM | MDA-MB-435 17.1 µM | SF-295 15 µM

C=CC1(CC)/C(=N\O)C(CC)(CC)C(=O)N1O (stereo not given)
inactive: OVCAR-3 > 100 µM | EKVX > 100 µM | SF-539 > 100 µM | ACHN > 100 µM | NCI-H522 > 100 µM | OVCAR-8 > 100 µM | HCT-116 > 100 µM | CAKI-1 > 100 µM | HOP-62 > 100 µM | M14 > 100 µM | OVCAR-5 > 100 µM | RXF 393 > 100 µM | SNB-75 > 100 µM | OVCAR-4 > 100 µM | SNB-19 > 100 µM | SF-295 > 100 µM

COc1ccc2c(c1)c(CC(=O)O)c(C)n2C(=O)c1ccc(Cl)cc1
inactive: OVCAR-3 56.6 µM | PC-3 39 µM | EKVX > 100 µM | SF-539 98.2 µM | ACHN > 100 µM | NCI-H522 77.1 µM | OVCAR-8 77.6 µM | HCT-116 > 100 µM | CAKI-1 29.6 µM | HOP-62 54.5 µM | M14 > 100 µM | OVCAR-5 > 100 µM | DU-145 > 100 µM | SNB-75 39.9 µM | OVCAR-4 > 100 µM | MDA-MB-435 > 100 µM | SNB-19 56.9 µM | SF-295 > 100 µM

Cc1cc2[nH]c3c(C#N)c(-c4ccccc4)c(/C=N/c4cccc(C(F)(F)F)c4)c(=O)n3c2cc1C
inactive: OVCAR-3 16.3 µM | PC-3 > 100 µM | EKVX > 100 µM | SF-539 63.4 µM | ACHN 83.9 µM | NCI-H522 39.4 µM | OVCAR-8 > 100 µM | HCT-116 40.8 µM | BT-549 91.6 µM | CAKI-1 89.9 µM | HOP-62 22.6 µM | M14 > 100 µM | OVCAR-5 > 100 µM | RXF 393 37 µM | SNB-75 > 100 µM | OVCAR-4 99.5 µM | MDA-MB-435 > 100 µM | SNB-19 > 100 µM | SF-295 64.3 µM
